# Laboratory results published in ChEMBL document CHEMBL4334434, “Discovery of napabucasin derivatives for the treatment of tuberculosis” (2019).
# Tests used:
# Assay type in all cases: functional
# [1] = tested on: Mycobacterium tuberculosis; assay: Antimycobacterial activity against Mycobacterium tuberculosis H37Ra UAlRa incubated for 6 days by luminescence based assay; conditions: 144 h
# [2] = tested on: Mycobacterium tuberculosis; assay: Antimycobacterial activity against Mycobacterium tuberculosis K18
# [3] = tested on: Mycobacterium tuberculosis; assay: Antimycobacterial activity against Mycobacterium tuberculosis K12
# [4] = tested on: Mycobacterium tuberculosis; assay: Antimycobacterial activity against Mycobacterium tuberculosis K4
# [5] = tested on: Mycobacterium tuberculosis; assay: Antimycobacterial activity against Mycobacterium tuberculosis H37Rv
# [6] = tested on: Mycobacterium tuberculosis; assay: Antimycobacterial activity against Mycobacterium tuberculosis K2
# [7] = tested on: Mycobacterium tuberculosis; assay: Antimycobacterial activity against Mycobacterium tuberculosis K16
# [8] = tested on: Mycobacterium tuberculosis; assay: Antimycobacterial activity against Mycobacterium tuberculosis K5
smiles,measurement,setting,value
CC(O)c1cc2c(o1)C(=O)c1ccccc1C2=O (configuration not stated),MIC,[1],41.2 µM
CC(c1cc2c(o1)C(=O)c1ccccc1C2=O)N1CCCCC1 (configuration not stated),MIC,[1],32.3 µM
CC(c1cc2c(o1)C(=O)c1ccccc1C2=O)N1CCOCC1 (configuration not stated),MIC,[1],32.1 µM
CC(Br)c1cc2c(o1)C(=O)c1ccccc1C2=O (configuration not stated),MIC,[1],16.5 µM
COC(=O)CC1CCN(C(=O)c2cc3c(o2)C(=O)c2ccccc2C3=O)CC1,MIC,[1],3.28 µM
O=C(NCCN1CCOCC1)c1cc2c(o1)C(=O)c1ccccc1C2=O,MIC,[1],7.1 µM
O=C(NC1CCCCC1)c1cc2c(o1)C(=O)c1ccccc1C2=O,MIC,[1],7.7 µM
CCN1CCN(C(=O)c2cc3c(o2)C(=O)c2ccccc2C3=O)CC1,MIC,[1],7.4 µM
O=C1c2ccccc2C(=O)c2oc(C(=O)N3CCC(c4cccc(Cl)c4)CC3)cc21,MIC,[1],≥ 23.9 µM
O=C(NCCc1ccccc1)c1cc2c(o1)C(=O)c1ccccc1C2=O,MIC,[1],≥ 28.9 µM
O=C(NCCc1ccccc1F)c1cc2c(o1)C(=O)c1ccccc1C2=O,MIC,[2],2.5 µg/mL
same,MIC,[3],2.5 µg/mL
same,MIC,[4],12.5 µg/mL
same,MIC,[5],0.5 µg/mL
same,MIC,[6],0.5 µg/mL
same,MIC,[7],2.5 µg/mL
same,MIC,[8],12.5 µg/mL
same,MIC,[1],1.7 µM
O=C(NCCc1ccc(F)cc1)c1cc2c(o1)C(=O)c1ccccc1C2=O,MIC,[1],1.7 µM
O=C1c2ccccc2C(=O)c2oc(C(=O)N3CCN(c4cccc(C(F)(F)F)c4)CC3)cc21,MIC,[2],2.5 µg/mL
same,MIC,[3],1 µg/mL
same,MIC,[4],25 µg/mL
same,MIC,[5],1 µg/mL
same,MIC,[6],0.5 µg/mL
same,MIC,[7],1 µg/mL
same,MIC,[8],25 µg/mL
same,MIC,[1],2.7 µM
O=C1c2ccccc2C(=O)c2oc(C(=O)N3CCCCC3)cc21,MIC,[2],2.5 µg/mL
same,MIC,[3],1 µg/mL
same,MIC,[4],12.5 µg/mL
same,MIC,[5],0.5 µg/mL
same,MIC,[6],0.5 µg/mL
same,MIC,[7],1 µg/mL
same,MIC,[8],12.5 µg/mL
same,MIC,[1],2 µM
O=C1c2ccccc2C(=O)c2oc(C(=O)N3CCC(c4ccc(F)cc4)CC3)cc21,MIC,[1],≥ 24.9 µM
O=C1c2ccccc2C(=O)c2oc(C(=O)N3CCOCC3)cc21,MIC,[1],4 µM
O=C1c2ccccc2C(=O)c2oc(C(=O)N3CCCC3)cc21,MIC,[1],4.2 µM
O=C(NCc1ccccc1F)c1cc2c(o1)C(=O)c1ccccc1C2=O,MIC,[1],1.8 µM
O=C(/C=C/c1ccccc1)c1cc2c(o1)C(=O)c1ccccc1C2=O,MIC,[1],≥ 30.4 µM
O=C(NCCc1ccc(Cl)cc1)c1cc2c(o1)C(=O)c1ccccc1C2=O,MIC,[1],6.6 µM
O=C(NCc1cccc(F)c1)c1cc2c(o1)C(=O)c1ccccc1C2=O,MIC,[1],0.9 µM
CN1CCN(C(=O)c2cc3c(o2)C(=O)c2ccccc2C3=O)CC1,MIC,[1],7.7 µM
O=C1c2ccccc2C(=O)c2oc(C(=O)N3CCSCC3)cc21,MIC,[2],0.5 µg/mL
same,MIC,[3],0.5 µg/mL
same,MIC,[4],2 µg/mL
same,MIC,[5],0.5 µg/mL
same,MIC,[6],0.25 µg/mL
same,MIC,[7],0.5 µg/mL
same,MIC,[8],4 µg/mL
same,MIC,[1],1.9 µM
O=C(/C=C/c1cccs1)c1cc2c(o1)C(=O)c1ccccc1C2=O,MIC,[1],29.9 µM
O=C1CCN(C(=O)c2cc3c(o2)C(=O)c2ccccc2C3=O)CC1,MIC,[1],7.7 µM
Cn1cccc1/C=C/C(=O)c1cc2c(o1)C(=O)c1ccccc1C2=O,MIC,[1],≥ 30.4 µM
O=C(NCCN1CCCCC1)c1cc2c(o1)C(=O)c1ccccc1C2=O,MIC,[1],3.6 µM
O=C(NCCc1cccc(F)c1)c1cc2c(o1)C(=O)c1ccccc1C2=O,MIC,[1],0.9 µM
CC1(C)CCC(NC(=O)c2cc3c(o2)C(=O)c2ccccc2C3=O)CC1,MIC,[2],2.5 µg/mL
same,MIC,[3],2.5 µg/mL
same,MIC,[4],25 µg/mL
same,MIC,[5],0.5 µg/mL
same,MIC,[6],0.25 µg/mL
same,MIC,[7],2.5 µg/mL
same,MIC,[8],25 µg/mL
same,MIC,[1],3.56 µM
O=C(NCc1ccc(F)cc1)c1cc2c(o1)C(=O)c1ccccc1C2=O,MIC,[1],1.8 µM
O=C(/C=C/c1ccc(O)cc1)c1cc2c(o1)C(=O)c1ccccc1C2=O,MIC,[1],≥ 29.1 µM
CC(=O)c1cc2c(o1)C(=O)c1ccccc1C2=O [NAPABUCASIN],MIC,[1],10.4 µM
